“And” between values parts separate entries of the source, which are not always exact repeats. Equal entries are not always repeated.
Test system: cos-7 cells
Experiment: DNA transfection: luciferase expression relative to Lipofectamine 2000
Assay type: cell-based
Settings: for Luciferase expression as a percentage of that achieved using Lipofectamine 2000: 300 ng Luciferase DNA per well
Summary of the method: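 Lipid/DNA complexes, 300 ng luciferase DNA per well at 2.5-25 w/w lipid:DNA, were formed in sodium acetate/Optimem and added to overnight-seeded cos-7 cells. Luciferase was measured by Bright-Glo luminescence after 48 hours and quantified against an enzyme standard curve. Values are expressed as % of Lipofectamine 2000 at 2.5 w/w.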

[1] = lipid/DNA 2.5 w/w, luciferase assay after 48 hours
[2] = lipid/DNA 5 w/w, luciferase assay after 48 hours
[3] = lipid/DNA 10 w/w, luciferase assay after 48 hours
[4] = lipid/DNA 15 w/w, luciferase assay after 48 hours
[5] = lipid/DNA 20 w/w, luciferase assay after 48 hours
[6] = lipid/DNA 25 w/w, luciferase assay after 48 hours
[7] = lipid/DNA 2.5 w/w, 72 hours incubation before bright-glo
[8] = lipid/DNA 5 w/w, 72 hours incubation before bright-glo
[9] = lipid/DNA 10 w/w, 72 hours incubation before bright-glo
[10] = lipid/DNA 15 w/w, 72 hours incubation before bright-glo
[11] = lipid/DNA 20 w/w, 72 hours incubation before bright-glo
[12] = lipid/DNA 25 w/w, 72 hours incubation before bright-glo

Compound	Luciferase expression as a percentage of that achieved using Lipofectamine 2000 [1]	Luciferase expression as a percentage of that achieved using Lipofectamine 2000 [2]	Luciferase expression as a percentage of that achieved using Lipofectamine 2000 [3]	Luciferase expression as a percentage of that achieved using Lipofectamine 2000 [4]	Luciferase expression as a percentage of that achieved using Lipofectamine 2000 [5]	Luciferase expression as a percentage of that achieved using Lipofectamine 2000 [6]	Luciferase expression as a percentage of that achieved using Lipofectamine 2000 [7] [%]	luciferase expression (second part of table, values relative to LIPO2000) [7]	Luciferase expression as a percentage of that achieved using Lipofectamine 2000 [8] [%]	luciferase expression (second part of table, values relative to LIPO2000) [8]	Luciferase expression as a percentage of that achieved using Lipofectamine 2000 [9] [%]	luciferase expression (second part of table, values relative to LIPO2000) [9]	Luciferase expression as a percentage of that achieved using Lipofectamine 2000 [10] [%]	luciferase expression (second part of table, values relative to LIPO2000) [10]	Luciferase expression as a percentage of that achieved using Lipofectamine 2000 [11] [%]	luciferase expression (second part of table, values relative to LIPO2000) [11]	Luciferase expression as a percentage of that achieved using Lipofectamine 2000 [12] [%]	luciferase expression (second part of table, values relative to LIPO2000) [12]
CCCCCCCCCCCCCCCOC(=O)CCN(CCCN(CC)CC)CCC(=O)OCCCCCCCCCCCCCCC [LG81]	0.7%	0.8%	1.2%	4.1%	14.8%	19.9%	–	–	–	–	–	–	–	–	–	–	–	–
CCCCCCCCCCCCCCCOC(=O)CCN(CCC(=O)OCCCCCCCCCCCCCCC)CCN1CCCCC1 [LG82]	0.2%	0.2%	0.6%	0.8%	0.5%	1.2%	–	–	–	–	–	–	–	–	–	–	–	–
CCCCCCCCCCCCCCCOC(=O)CCN(CCCN(CCO)CCO)CCC(=O)OCCCCCCCCCCCCCCC [LG87]	14.5%	7.5%	9.2%	10.4%	5.9%	4.7%	–	–	–	–	–	–	–	–	–	–	–	–
CCCCCCCCCCCCCCCOC(=O)CCN(CCC(=O)OCCCCCCCCCCCCCCC)CCN1CCOCC1 [LG90]	0.1% and 0.6%	0.1% and 0.6%	0.0% and 0.4%	0.0% and 0.4%	0.1% and 0.4%	0.0% and 0.4%	–	–	–	–	–	–	–	–	–	–	–	–
CCCCCCCCCCCCCCCOC(=O)CCN(CCCN1CCOCC1)CCC(=O)OCCCCCCCCCCCCCCC [LG91]	0.2%	0.2%	0.1%	0.2%	0.1%	0.1%	–	–	–	–	–	–	–	–	–	–	–	–
CCCCCCCCCCCCCCCOC(=O)CCN(CCCn1ccnc1)CCC(=O)OCCCCCCCCCCCCCCC [LG93]	3.6%	9.2%	19.8%	37.3%	24.0%	24.6%	45.0	45.0	43.8	43.8	310.5	310.5	281.8	281.8	185.9	185.9	183.8	183.8
CCCCCCCCCCCCCCCCCCOC(=O)CCN(CCCOC)CCC(=O)OCCCCCCCCCCCCCCCCCC [LH1]	0.0%	0.0%	0.0%	0.0%	0.0%	0.0%	–	–	–	–	–	–	–	–	–	–	–	–
CCCCCCCCCCCCCCCCCCOC(=O)CCN(CCC(=O)OCCCCCCCCCCCCCCCCCC)CCC1OCCO1 [LH6]	0.0%	0.0%	0.0%	0.0%	0.0%	0.0%	–	–	–	–	–	–	–	–	–	–	–	–
CCCCCCCCCCCCCCCCCCOC(=O)CCN(CCC(=O)OCCCCCCCCCCCCCCCCCC)CC1COC(C)(C)O1 (stereo not drawn) [LH7]	0.0%	0.0%	0.0%	0.0%	0.0%	0.0%	–	–	–	–	–	–	–	–	–	–	–	–
CCCCCCCCCCCCCCCCCCOC(=O)CCN(CCOC)CCC(=O)OCCCCCCCCCCCCCCCCCC [LH10]	0.0%	0.0%	0.0%	0.0%	0.0%	0.0%	–	–	–	–	–	–	–	–	–	–	–	–
CCCCCCCCCCCCCCCCCCOC(=O)CCN(CCOCC)CCC(=O)OCCCCCCCCCCCCCCCCCC [LH11]	0.0%	0.0%	0.0%	0.0%	0.0%	0.0%	–	–	–	–	–	–	–	–	–	–	–	–
CCCCCCCCCCCCCCCCCCOC(=O)CCN(CCC(=O)OCCCCCCCCCCCCCCCCCC)CC(OC)OC [LH13]	0.0%	0.0%	0.0%	0.0%	0.0%	0.0%	–	–	–	–	–	–	–	–	–	–	–	–
CCCCCCCCCCCCCCCCCCOC(=O)CCN(CCC(=O)OCCCCCCCCCCCCCCCCCC)CC1CCCO1 (stereo not drawn) [LH15]	0.0%	0.0%	0.0%	0.0%	0.0%	0.0%	–	–	–	–	–	–	–	–	–	–	–	–
CCCCCCCCCCCCCCCCCCOC(=O)CCN(CCC(=O)OCCCCCCCCCCCCCCCCCC)CCc1ccc(OC)c(OC)c1 [LH17]	0.0%	0.0%	0.0%	0.0%	0.0%	0.0%	–	–	–	–	–	–	–	–	–	–	–	–

— US9006487B2, “Amine-containing lipids and uses thereof” (Massachusetts Institute of Technology, priority 2005, dated 2015)
